Results: patent publication EP2647374A1, “Nutritional compositions including beta-hydroxy-beta-methylbutyrate for regulating transcription factors” (Abbott Laboratories, Inc., priority 2012, dated 2013)

Experiments:
L6 myotubes [1] = experiment: Protein synthesis assay ([3H]Tyr incorporation) in dexamethasone-treated myotubes; format: cell-based, rat; conditions: HMB 25 µM or Leu 10 mM, 2 hours plus 1 hour labeling, dexamethasone 5 µM
Method: (§1) Cell culture. The L6.C11 rat skeletal muscle myoblast line (ECACC No. 92102119) was grown in DMEM containing 10% (v/v) FCS, 2 mmol/l Glutamine plus 100 units/ml penicillin and 0.1 mg/ml streptomycin (Sigma) in an atmosphere of air/CO2 (95:5) and maintained at subconfluent densities in growth media. Cells were differentiated to myotubes by exchanging the growth medium for a differentiation medium consisting of DMEM containing 2% (v/v) FCS for 3-4 days (>50% fusion into multinucleated myotubes).
(§2) Protein synthesis and degradation assays. […] At the completion of the labeling period, cultures were rinsed three times with PBS, cells were lysed with sodium desoxycholate 0.1%/NaOH 0.1 M and protein was precipitated with cold 10% TCA in PBS overnight, rinsed once with cold 10% TCA, solubilized in NaOH 0.5 M, neutralized with HCl 0.5 M and mixed with scintillation fluid, and radioactivity was determined using a scintillation counter. […] Degradation rates were determined according to Hong & Forsberg, 1995.
Particularly, L6 myotubes were treated with HMB (25 µM) or Leu (10 mM) for 2 hours in the presence or absence of dexamethasone (5 µM). […] After the incubation, protein synthesis for each condition was calculated. […] Results are expressed as means ± SEM of six independent experiments.

UbC promoter = experiment: pGL3-UbC luciferase reporter assay in L6 myotubes; format: cell-based, rat; conditions: pre-treatment HMB 25 µM or Leu 10 mM 48 hours, then dexamethasone 5 µM 48 hours
Description: (§3) Reporter gene constructs. For the analysis of rat Ubiquitin (UbC) promoter, a 417 bp fragment of 417 bp flanking the transcription start point was amplified from rat genomic DNA. This fragment was similar to those that have been characterized for the human and rat promoters. The sequences of all constructs were verified by automated DNA sequencing. The Cignal FOXO Reporter (luc) kit, CCS-1022L, was provided by SABiosciences and contains a mixture of inducible FOXO-responsive firefly luciferase construct and constitutively expressing Renilla luciferase construct (40:1).
(§4) DNA transfection assays. For transfection experiments, cells were used at 80-90% confluence. […] Luciferase activity was determined using standard reagents (Dual Luciferase method, Promega) in a luminometer (Sirius L, Berthold Technologies, Bad Wildbad, Germany) and results were standardized for Renilla luciferase activity. […] To allow comparison of the expression patterns, the data were expressed as relative changes in luciferase activity and were normalized to a value of 100%.
Additionally, the effect of HMB and Leu on UbC promoter implicated in protein degradation induced by dexamethasone was analyzed. […] Results are expressed as means ± SEM of six independent experiments.

FOXO3a = experiment: Western blot of FOXO3a in nuclear extracts of L6 cells (Histone H3 reference); format: cell-based, rat
Method: Preparation of nuclear extracts. Nuclear extracts from L6 cells were prepared following Bhavsar et al. Protein concentration was measured in nuclear extracts using the Bio-Rad Protein Assay kit. Aliquots of the extracts (40 µg) were resolved by 10% SDS-PAGE and analyzed by immunoblotting using a 1:1000 dilution of polyclonal anti-FOXO3a or anti-Histone H3 antibodies. The antigen-antibody complexes were detected with HRP-conjugated secondary antibodies using a chemiluminescence detection system (Bio-Rad).
To address whether the down-regulation of atrogin-1 in HMB- pretreated cells was accompanied by an underlying regulation of the FOXO transcription factor, the total FOXO expression (monitored by using FOXO-luciferase reporter gene activity) and the amount FOXO3a transcription factor in the nucleus were analyzed. L6 Myoblasts were differentiated to myotubes for 3 days in 2% FBS. After the differentiation process, medium was changed to 10% FBS for the remainder of the experiment. Myotubes were incubated in the presence or absence of HMB (25 µM) or Leu (10 mM) for 48 hours. […]
Further, L6 untransfected cells were treated as above, nuclear extracts were obtained as described in the material and methods section and analyzed by Western blot using an anti-FOXO3 antibody. […] Results are expressed as means ± SEM of four independent experiments.

PKB/Akt = experiment: Western blot of phospho-PKB/Akt vs total PKB/Akt in L6 myotubes; format: cell-based, rat; conditions: basal, without dexamethasone; HMB 25 µM or Leu 10 mM, 30 minutes
Method: (§5) Protein phosphorylation analysis. L6 myotubes were incubated with HMB or Leu in the absence or presence of dexamethasone for 30 minutes. After treatment, plates were flash frozen in liquid nitrogen and were scraped with 50 µl/60 mm/plate of cold 30 mmol/L Tris-HCl pH 7.4, 25 mmol/L NaCl, 1% (v/v) Triton X-100, 0.1% SDS, 10 mmol/L sodium fluoride, 10 mmol/L sodium pyrophosphate, 1 mmol/L sodium orthovanadate, 1 mmol/L EGTA, 20 nmol/L okadaic acid, 10 µg/ml aprotinin, 10 µg/ml leupeptin, 10 µg/ml pepstatin. After 10 minutes on ice, extracts were centrifuged at 13000 g for 10 minutes at 4°C. Protein concentration from the supernatants was measured using the Bio-Rad Protein Assay. […]
(§6) L6 Myoblasts were differentiated to myotubes for 3 days in 2% FBS. […] Cells were lysed in phosphorylation buffer and analyzed by Western blot using an anti-phospho PKB/Akt antibody (FIG. 3A), anti-phospho mTOR antibody (FIG. 3B), or anti-atrogin-1 antibody (FIG. 3C). […] The lower panels of each of FIGS. 3A-3C show densitometric quantification of: phospho-PKB/total PKB protein abundance (FIG. 3A); phospho-mTOR/total mTOR protein abundance (FIG. 3B); or atrogin-1 protein abundance using Histone H3 (FIG. 3C) as a reference control. Results are expressed as means ± SEM of four independent experiments.

L6 myotubes [2] = experiment: Protein degradation assay ([3H]Tyr release) in dexamethasone-treated myotubes; format: cell-based, rat; conditions: pre-incubation HMB 25 µM or Leu 10 mM 48 hours, then 48 hours with dexamethasone 5 µM
Method: as §1, §2
To study the effects of HMB and Leu on protein degradation induced by dexamethasone, L6 differentiated myotubes were first differentiated to myotubes for 3 days in 2% FBS, and then the medium was changed to 10% FBS for the remainder of the experiment. […] After the incubation, protein degradation for each condition was calculated. […] Results are expressed as mean ± SEM of six independent experiments.

mTOR = experiment: Western blot of phospho-mTOR vs total mTOR in L6 myotubes; format: cell-based, rat; conditions: basal, without dexamethasone; HMB 25 µM or Leu 10 mM, 30 minutes
Method: as §5, §6

ERK1/2 = experiment: Western blot of phospho-ERK1/2 vs total ERK1/2 in L6 myotubes; format: cell-based, rat; conditions: HMB 25 µM or Leu 10 mM, 30 minutes
Method: Protein phosphorylation analysis. L6 myotubes were incubated with HMB or Leu in the absence or presence of dexamethasone for 30 minutes. After treatment, plates were flash frozen in liquid nitrogen and were scraped with 50 µl/60 mm/plate of cold 30 mmol/L Tris-HCl pH 7.4, 25 mmol/L NaCl, 1% (v/v) Triton X-100, 0.1% SDS, 10 mmol/L sodium fluoride, 10 mmol/L sodium pyrophosphate, 1 mmol/L sodium orthovanadate, 1 mmol/L EGTA, 20 nmol/L okadaic acid, 10 µg/ml aprotinin, 10 µg/ml leupeptin, 10 µg/ml pepstatin. After 10 minutes on ice, extracts were centrifuged at 13000 g for 10 minutes at 4°C. Protein concentration from the supernatants was measured using the Bio-Rad Protein Assay. Proteins (25-40 µg) were separated by SDS-PAGE and immunoblotted with selected antibodies; the immunoblots were developed by chemiluminescence detection.
Taking into account that phosphorylation of FOXO3a by ERK is a required step for FOXO3a ubiquitination and subsequent proteosomal degradation of this transcription factor in the cytoplasm, the effect of HMB and Leu on ERK activation was also analyzed. Specifically, L6 Myoblasts were differentiated to myotubes for 3 days in 2% FBS. […] Cells were lysed in phosphorylation buffer and analyzed by Western blot using an anti-phospho ERK1/2 antibody. […] Results are expressed as means ± SEM of four independent experiments.

FOXO = experiment: FOXO-responsive luciferase reporter assay in L6 cells; format: cell-based, rat
Description: as §3, §4
To address whether the down-regulation of atrogin-1 in HMB- pretreated cells was accompanied by an underlying regulation of the FOXO transcription factor, the total FOXO expression (monitored by using FOXO-luciferase reporter gene activity) and the amount FOXO3a transcription factor in the nucleus were analyzed. […]

atrogin-1 = experiment: cells; format: cell-based; conditions: Rattus norvegicus, L6, 48 h, read-out: increase in amount of atrogin-1
Method: Atrogin-1 analysis. L6 myotubes were pre-incubated with HMB 25 µM or Leu 10 mM for 48 hours. Then, dexamethasone 5 µM was added for another 48 hours. After treatment, cells were lysed with RIPA buffer (Sigma) supplemented with inhibitor protease cocktail (Sigma). Lysates were sonicated and protein concentration was measured using the Bio-Rad Protein Assay. Proteins (40 µg) were separated by SDS-PAGE and immunoblotted with anti-atrogin antibody.
L6 Myoblasts were differentiated to myotubes for 3 days in 2% FBS. Cells were deprived of FBS for 12 hours and incubated with HMB (25 µM) or Leu (10 mM) and insulin (100 nmol/l) in the absence or presence of dexamethasone (5 µM) for 30 minutes. Cells were lysed in phosphorylation buffer and analyzed by Western blot using an anti-phospho PKB/Akt antibody (FIG. 3A), anti-phospho mTOR antibody (FIG. 3B), or anti-atrogin-1 antibody (FIG. 3C). As a loading control, results were normalized using an anti-total PKB/Akt antibody, anti-total mTOR antibody, or an anti-Histone H3 antibody (see FIGS. 3A-3C, respectively). […] The lower panels of each of FIGS. 3A-3C show densitometric quantification of: phospho-PKB/total PKB protein abundance (FIG. 3A); phospho-mTOR/total mTOR protein abundance (FIG. 3B); or atrogin-1 protein abundance using Histone H3 (FIG. 3C) as a reference control. Results are expressed as means ± SEM of four independent experiments.

[3] = basal conditions, absence of dexamethasone, HMB 25 µM or Leu 10 mM
[4] = pre-treatment HMB 25 µM or Leu 10 mM 48 hours, then dexamethasone 5 µM 12 hours

CC(C)C[C@H](N)C(=O)O [Leu, Leucine]
prevention of the decrease in protein synthesis induced by dexamethasone (L6 myotubes [1]): but not Leu | counteraction of the effects of dexamethasone on Ub-C promoter activity (UbC promoter): only HMB was able to significantly counteract the effects of dexamethasone on Ub-C promoter activity | FOXO basal amount (nuclear FOXO3a) (FOXO3a; [3]): neither HMB nor Leu were able to significantly change FOXO basal activity or amount | FOXO3a nuclear translocation induced by dexamethasone (FOXO3a; [4]): did not have any effect on the dexamethasone-increased FOXO expression and amount | phosphorylative state of Akt (PKB/Akt): did not have influence on the phosporylative state of Akt and mTOR | decrease of proteolysis induced by dexamethasone (L6 myotubes [2]): did not significantly affect glucocorticoid-induced protein degradation | phosphorylative state of mTOR (mTOR): did not have influence on the phosporylative state of Akt and mTOR | ERK activation (phospho-ERK/total ERK) (ERK1/2; atrophic conditions (dexamethasone 5 µM)): induced an activation of ERK kinase either at basal or at atrophic conditions | ERK activation (phospho-ERK/total ERK) (ERK1/2; basal conditions): induced an activation of ERK kinase either at basal or at atrophic conditions | FOXO basal activity (FOXO; [3]): neither HMB nor Leu were able to significantly change FOXO basal activity or amount | FOXO overexpression induced by dexamethasone (reporter activity) (FOXO; [4]): did not have any effect on the dexamethasone-increased FOXO expression and amount

C[C@@H]1C[C@H]2[C@@H]3CCC4=CC(=O)C=C[C@]4(C)[C@@]3(F)[C@@H](O)C[C@]2(C)[C@@]1(O)C(=O)CO [dexamethasone]
fold induction at 5 µM (atrogin-1): > 4

CC(C)(O)CC(=O)O [HMB, beta-hydroxy-beta-methylbutyrate]
inhibition at 25 µM (L6 myotubes [2]; Rattus norvegicus, L6, read-out: decrease of proteolysis induced by dexamethasone): ~60%
